The test has as its system 636577-100-R-J1-PDC complex spheroid viability. The test is described as follows: Anticancer human tumor 636577-100-R-J1-PDC patient-derived endometrial adenocarcinoma cell line growth inhibition [GQUAD]. The following applies: for viability, T/C: stronger effect = lower value. The text has this: DNA G-quadruplex Stabilizer Agents in Combinations in Complex Spheroids
A high-throughput screen of multi-cell type tumor spheroids was designed to identify active combinations of DNA G-quadruplex stabilizer agents and targeted small molecules. Complex spheroids include a stromal component modeled by human endothelial cells (HUVEC) and fibroblasts modeled by human mesenchymal stem cells (MSCs). The concentration ranges selected for each drug and investigational agent were based upon clinically achievable concentrations if the clinical Cmax of the agent was known.
Compounds. The drugs and investigational agents: pidnarulex (CX-5461; NSC782164), APTO-253 (NSC789042), BRACO-19 (NSC847499), peposertib (NSC802822), ceralasertib (NSC780249), elimusertib (NSC800525), camonsertib (NSC841442), AZD-1390 (NSC803789), olaparib (NSC753686), talazoparib (NSC767125), ART-558 (NSC835418), sotorasib (NSC818433), MRTX-1133 (NSC836407), SN-38 (NSC673596), topotecan (NSC609699), etoposide (NSC141540), doxorubicin (NSC123127), gemcitabine (NSC613327), 5-fluorouracil (NSC19893), paclitaxel (NSC125973), vemurafenib (NSC761431), panobinostat (NSC761190), R-306465 (JNJ-16241199; NSC773264), adavosertib (NSC754352), TP-3654 (NSC805149), carboplatin (NSC241240), KSQ-4279 (NSC840948), and staurosporine (NSC755774) were obtained from the National Cancer Institute (NCI) Developmental Therapeutics Program Chemical Repository (34). The FDA-approved anticancer drug set is available from the NCI Developmental Therapeutics Program. […] The stock solutions were prepared in dimethyl sulfoxide (DMSO, Sigma-Aldrich, St. Louis, MO, cat. D2650) at 800-fold the tested concentration and stored at -70 degrees C prior to their use. All drugs and investigational agents were tested over a range starting from a high concentration at or near the clinical Cmax and decreasing in half-log increments. If the clinical Cmax for an agent had not been determined, the highest concentration tested was 10 microM.
2.3 Cell Culture. All cells were maintained in an incubator at 37 degrees C and 5% CO2 with 95% humidity. The PDC lines were cultured according to standard operating procedures established by the NCI PDMR. All PDCs were thawed and cultured in Matrigel-coated flasks prepared with a working solution of 1X Ham's F-12 nutrient mix, without supplementation (Invitrogen, cat. 11765054), 100 U/mL penicillin-streptomycin (Invitrogen, cat. 15140122), and 2.5% Matrigel (Corning Inc., cat. 354248) for the first three passages. The 857933-349-R-J2-PDC line was cultured in 6C/Colon 1B media, which includes advanced DMEM/F-12 (Thermo Fisher Scientific, cat. 12634028), 10 mM HEPES (Thermo Fisher Scientific, cat. 15630080), 1X GlutaMAX supplement (Thermo Fisher Scientific, cat. 35050061), 0.1 mg/mL primocin (InvivoGen, cat. ant-pm-2), 10% defined fetal bovine serum, heat inactivated (HyClone Laboratories Inc., cat. SH30070.03HI), 50% L-WRN conditioned media (ATCC, cat. CRL-3276), 1.25 mM N-Acetyl-L-cysteine (Sigma-Aldrich, cat. A9165), 10 mM nicotinamide (Sigma-Aldrich, cat. N0636), 1X B-27 supplement (Thermo Fisher Scientific, cat. 17504044), 1X N-2 supplement (Thermo Fisher Scientific, cat. 17502048), 10 microM Y-27632 dihydrochloride (Tocris Bioscience, cat. 1254), and 50 ng/mL human EGF recombinant protein (Thermo Fisher Scientific, cat. PHG0311). The 485176-168-R4-J1-PDC line was cultured in Panc media, which includes all 6C/Colon 1B media components plus 100 ng/mL human FGF-10 (Thermo Fisher Scientific, cat. 100-26), 500 nM SB-431542 (Selleckchem, cat. S1067), and gastrin (Tocris, cat. 3006).
[…]

“And” between values parts separate entries of the source, which are not always exact repeats. Equal entries are not always repeated.

This is an account of results in PubChem BioAssay AID2060504 (Molecular Pharmacology Branch, DTP, NCI, 2025).
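Further: viability read after seven days of drug exposure.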
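Wherever viability, T/C is given: luminescence signal used as a proxy for viable cells; 100% = DMSO vehicle control wells.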

As for `O=C(c1cc(Cc2n[nH]c(=O)c3ccccc23)ccc1F)N1CCN(C(=O)C2CC2)CC1` + Cc1[nH]c2ccc(F)cc2c1-c1nc2c3cccnc3c3ncccc3c2[nH]1, the IC50 (curve of first compound, second compound 0.0316 µM) was determined as 0.305 µM; the IC50 (curve of first compound, second compound 0.1 µM) came out at 3.06 µM; the IC50 (curve of first compound, second compound 0.316 µM) was 2.69 µM; the IC50 (curve of first compound, second compound 1 µM) was 5.55 µM; the IC50 (curve of first compound, second compound 3.16 µM) is under 0.0316 µM; the half-maximal inhibitory concentration (IC50) (curve of first compound, second compound 10 µM) turned out to be 3.28 µM. The viability, T/C reads like this: (second compound 0.0316 µM, first compound 0.0316 µM) 103%; (second compound 0.0316 µM, first compound 0.1 µM) 79.4%; (second compound 0.0316 µM, first compound 0.316 µM) 46.5%; (second compound 0.0316 µM, first compound 1 µM) 58.6%; (second compound 0.0316 µM, first compound 3.16 µM) 50.4%; (second compound 0.0316 µM, first compound 10 µM) 40.6%. Further, the viability, T/C is 100% (second compound 0.1 µM, first compound 0.0316 µM); 96.5% (second compound 0.1 µM, first compound 0.1 µM); 65.2% (second compound 0.1 µM, first compound 0.316 µM); 43.7% (second compound 0.1 µM, first compound 1 µM); 67.6% (second compound 0.1 µM, first compound 3.16 µM); 36.9% (second compound 0.1 µM, first compound 10 µM). For the same compound, the viability, T/C by setting is: (second compound 0.316 µM, first compound 0.0316 µM) 90.1%; (second compound 0.316 µM, first compound 0.1 µM) 75.3%; (second compound 0.316 µM, first compound 0.316 µM) 66.7%; (second compound 0.316 µM, first compound 1 µM) 61.6%; (second compound 0.316 µM, first compound 3.16 µM) 53.7%; (second compound 0.316 µM, first compound 10 µM) 32.4%. In addition, the viability, T/C by setting is: (second compound 1 µM, first compound 0.0316 µM) 60.6%; (second compound 1 µM, first compound 0.1 µM) 65.7%; (second compound 1 µM, first compound 0.316 µM) 65.6%; (second compound 1 µM, first compound 1 µM) 57.9%; (second compound 1 µM, first compound 3.16 µM) 63.4%; (second compound 1 µM, first compound 10 µM) 37%. The viability, T/C by setting is: (second compound 3.16 µM, first compound 0.0316 µM) 39.4%; (second compound 3.16 µM, first compound 0.1 µM) 40.7%; (second compound 3.16 µM, first compound 0.316 µM) 43.5%; (second compound 3.16 µM, first compound 1 µM) 43.3%; (second compound 3.16 µM, first compound 3.16 µM) 31.6%; (second compound 3.16 µM, first compound 10 µM) 29.9%. The viability, T/C is 34.6% (second compound 10 µM, first compound 0.0316 µM); 64.9% (second compound 10 µM, first compound 0.1 µM); 57.3% (second compound 10 µM, first compound 0.316 µM); 41.9% (second compound 10 µM, first compound 1 µM); 54% (second compound 10 µM, first compound 3.16 µM); 33% (second compound 10 µM, first compound 10 µM).

For the compound `CC1COCCN1c1cc(-c2ccnn2C)c2ccnc(-c3ccn[nH]3)c2n1` (stereo unspecified), the viability, T/C is 85.1% and 78.3% and 94.5% (compound 0.0316 µM); 52.2% and 35.1% and 51.9% (compound 0.1 µM); 29.6% and 23.1% and 25.6% (compound 0.316 µM); 15.7% and 12.7% and 13% (compound 1 µM); 5.78% and 5.92% and 5.17% (compound 3.16 µM); 3.61% and 3.66% and 3.51% (compound 10 µM). In addition, the IC50 (curve of compound) was 0.113 µM and 0.071 µM and 0.109 µM.

For the compound `CC(=O)O[C@H]1C(=O)[C@@]2(C)[C@H]([C@H](OC(=O)c3ccccc3)[C@]3(O)C[C@H](OC(=O)[C@H](O)[C@@H](NC(=O)c4ccccc4)c4ccccc4)C(C)=C1C3(C)C)[C@]1(OC(C)=O)CO[C@@H]1C[C@@H]2O`, the viability, T/C was 17.6% and 17.3% and 20.3% (compound 0.0316 µM); 14% and 14.4% and 13.2% (compound 0.1 µM); 12.3% and 12.7% and 10.3% (compound 0.316 µM); 12.2% and 12% and 10% (compound 1 µM); 9.72% and 10.1% and 7.81% (compound 3.16 µM); 9.54% and 9.71% and 8.27% (compound 10 µM). Where the note is “curve of compound”, the half-inhibitory concentration (IC50) was under 0.0316 µM.
